Source: patent EP0211584A1, “Antihypertensive agents” (AMERICAN HOME PRODUCTS CORPORATION, priority 1985, dated 1987)

Experiments:
[1] = tested on: rabbit aortic smooth muscle; experiment: Ca+2 antagonism: relaxation of KCl-depolarized rabbit aortic smooth muscle strips; settings: Oryctolagus cuniculus, 20 min, compound 1 x 10^-5M; 100mM KCl contraction; 20 minutes after addition; mean of two experiments; read-out: P.R. (percent relaxation of aortic tissue)
Protocol: The composition of PSS was as follows (mM): NaCl 112,KCI 5, NaHCO3 25 KH2PO4 1, MgSO4 1.2, CaCl2 2.5, dextrose 10. The lower end of each tissue strip was attached to a fixed post and the upper end to a Statham UC-4 transducer. Changes in force development were recorded on a Beckman Dynograph Polygraphic Recorder.
Following equilibration, the muscles were contracted in a depolarizing solution of PSS in which 100mM KCI was substituted for an equimolar concentration of NaCI. Following attainment of steady- state isometric force (20 min.), the test compound was added to afford a final concentration of 1 x 10^-5M. The inhibitory effect, expressed as percent relaxation, was determined from the mean of two experiments twenty minutes after the addition of the compound being tested.
(§1) The following examples illustrate the preparation of a representative number of compounds of this invention. After each example, the Ca+2 antagonist activity of the compound is presented in terms of percent relaxation of aortic tissue (P.R.) at 10-^5M concentration. […] Inhibition of super- precipitation (Antag. of Actin-Myosin interaction) is expressed as percent inhibition (mean ± standard error of the mean for at least 3 separate experiments) at a compound concentration. In the same manner, inhibition of myosin light chain phosphorylation (Antag. of MLCP) is expressed as a percent inhibition at a compound concentration. Similarly, the antihypertensive activity is reported in terms of millimetres mercury (mmHg) systolic blood pressure (B.P.) reduction at the stated time post 50 mg/kg oral dosing or other dosing as indicated.

[2] = tested on: isolated paced intact rabbit atria; experiment: Cardiac depressant (negative inotropic) effect in isolated paced rabbit atria; settings: Oryctolagus cuniculus; rabbit atria paced at 3Hz, 30°C, cumulative dosing; read-out: IC25 (concentration which produces 25% inhibition of isometric force)
Protocol: The potential for detrimental cardiac depressant (negative inotropic) effects of the compounds of this invention was assessed in isolated paced intact rabbit atria. […] Muscles (N=5-9/compound) were stimulated at a frequency of 3Hz with a WPI stimulator for a 60 minute equilibration period. Changes in isometric force were recorded as described for the aortic smooth muscle experiments, supra. […]

[3] = tested on: spontaneously hypertensive rats; experiment: Hypotensive effect: systolic blood pressure of spontaneously hypertensive rats; assay type: in vivo; settings: mmHg per method
Protocol: The hypotensive in vivo effect of the compounds of this invention was determined by measuring changes in the systolic blood pressure of spontaneously hypertensive rats with a Decker Caudal Plethysmograph. The compound being tested was administered to a group of 4 rats and their systolic pressure was determined prior to and at 1.5 and 4 hours after compound administration. Initial testing was done by oral administration of the compound. Results (mmHg) are expressed as decreases in systolic blood pressure.
as §1

[4] = tested on: arterial actin-myosin interactions; experiment: Inhibition of superprecipitation (antagonism of actin-myosin interaction), Silver et al.; assay type: biochemical; settings: six minute time-point
Protocol: . The data reported herein was obtained at a six minute time-point rather than the 1.5, 5 and 12 minute time points indicated in the superprecipita- tion assay of the Silver et al paper.
as §1

[5] = biological target: Ca^+2-calmodulin dependent myosin light chain phosphorylation (Bos taurus, UniProt Q28824); experiment: Inhibition of myosin light chain phosphorylation (MLCP), Silver et al.; assay type: biochemical; settings: read-out: Antag. of MLCP (percent inhibition of myosin light chain phosphorylation)
Protocol: The data reported herein was obtained at a six minute time-point rather than the 1.5, 5 and 12 minute time points indicated in the superprecipita- tion assay of the Silver et al paper.
as §1

| inhibition at 25 µM [5] [%] | inhibition at 50 µM [5] [%] | inhibition at 100 µM [5] [%] | inhibition at 10 µM ([5]; 10µM) [%] | Compound | inhibition at 10 µM [1] [%] | IC25 [2] [nM] | B.P. (systolic blood pressure reduction) ([3]; dose 10mg/kg oral, at 1.5 hours) [mm] | B.P. (systolic blood pressure reduction) ([3]; dose 10mg/kg oral, at 4 hours) [mm] | Antag. of Actin-Myosin (percent inhibition of superprecipitation) ([4]; 25µM) [%] | Antag. of Actin-Myosin (percent inhibition of superprecipitation) ([4]; 50µM) [%] | Antag. of Actin-Myosin (percent inhibition of superprecipitation) ([4]; 100µM) [%] | B.P. (systolic blood pressure reduction) ([3]; dose 50mg/kg oral, at 1.5 hours) [mm] | B.P. (systolic blood pressure reduction) ([3]; dose 50mg/kg oral, at 4 hours) [mm] | B.P. (systolic blood pressure reduction) ([3]; dose 25mg/kg oral, at 4 hours) [mm] | B.P. (systolic blood pressure reduction) ([3]; dose 5mg/kg oral, at 1.5 hours) [mm] | B.P. (systolic blood pressure reduction) ([3]; dose 5mg/kg oral, at 4 hours) [mm] | B.P. (systolic blood pressure reduction) ([3]; dose 25mg/kg oral, at 1.5 hours) [mm] | Antag. of Actin-Myosin (percent inhibition of superprecipitation) ([4]; 10µM) [%] |
| --- | --- | --- | --- | --- | --- | --- | --- | --- | --- | --- | --- | --- | --- | --- | --- | --- | --- | --- |
| 35 | 64 | 77 ± 3 | – | CC1=C(C(=O)OCCc2ccccc2)C(c2c(F)c(F)c(F)c(F)c2F)C2=C(CNCC2=O)N1 (centres unmarked) [Example 18, 1,4,5,6,7,8-Hexahydro-2-methyl-5-oxo-4-(pentafluorophenyl)-1,7-naphthyridine-3-carboxylic acid 2-phenylethyl ester] | 48 | 1000 | -27 | -24 | 42 | 65 | 78±2 | – | – | – | – | – | – | – |
| – | – | 69 | – | CC1=C(C(=O)OCCOc2ccccc2)C(c2cccc(Cl)c2Cl)C2=C(CNCC2=O)N1 (centres unmarked) [Example 19, 4-(2,3-Dichlorophenyl)-1,4,5,6,7,8-hexahydro-2-methyl-5-oxo-1,7-naphthyridine-3-carboxylic acid 2-phenoxyethylester] | 62 | 2500 | – | – | – | – | 71 | -50 | -73 | – | – | – | – | – |
| – | – | 77 | – | CC1=C(C(=O)OCCCCOc2ccccc2)C(c2c(F)c(F)c(F)c(F)c2F)C2=C(CNCC2=O)N1 (centres unmarked) [Example 21, 1,4,5,6,7,8-Hexahydro-2-methyl-5-oxo-4-(pentafluorophenyl)-1,7-naphthyridine-3-carboxylic acid 4-phenoxvbutvl ester] | 61 | 1000 | – | – | – | – | 80 | – | – | -49 | – | – | – | – |
| 48 ± 3 | 60 ± 4 | 67 ± 2.3 | 32 ± 8 | CC1=C(C(=O)OCCOc2cccc(Cl)c2Cl)C(c2c(F)ccc(Cl)c2Cl)C2=C(CNCC2=O)N1 (centres unmarked) [Example 25, 4-(2,3-dichloro-6-fluorophenyl)-1,4,5,6,7,8-hexahydro-2-methyl-5-oxo-1,7-naphthyridine-3-carboxylic acid 2-(2,3-dichlorophenoxy)ethyl ester] | 59 | 700 | – | – | 55±2.5 | 67±5 | 73±2.4 | – | – | -70 | -18 | -40 | -74 | 34±7 |
